According to patent US5137918A, “N-(2'-aminophenyl)-benzamide derivatives process for the preparation thereof and pharmaceutical compositions containing them” (priority 1986, dated 1992):
Converted amounts (≈) assume the structure as drawn. “Also recorded” adds a separate entry of the source.

Assays:
[1] = system: mammary adenocarcinoma 16C tumor cells; experiment: Mamma Adenocarcinoma 16C Cytotoxicity Assay; format: cell-based; details: ID50 ≤250 μg/mL assessed as cytostatically active
Description: (§1) 4-Acetamino-N-(2'-aminophenyl) benzamide was used as an example of a compound according to the present invention and compared with […] as standard, the outstanding inhibition action of which against various experimental tumors in vitro and in vivo is known. The testing was carried out in vivo with SD-rats against MNU-induced mammary adenocarcinoma and acetoxymethylmethylnitrosamine-induced (AMMN-induced) colon adenocarcinoma. The testing was carried out in vitro in the "colorimetric-cytotoxicity assay" using L1210 and mammary adenocarcinoma 16C tumor cells. In this test system, substances with ID50 values of ≤250 μg/mL are assessed as being cytostatically active.

L1210 tumor cells = experiment: L1210 Colorimetric Cytotoxicity Assay; format: cell-based; details: for IC50: Mus musculus, L1210, ID50 ≤250 μg/mL assessed as cytostatically active
Description: as §1

[2] = system: methylnitrosurea-induced (MNU-induced) mammary adenocarcinoma; experiment: MNU-induced mammary adenocarcinoma in SD rats; format: in vivo, female SD rats
Description: FIGS. 5 and 6 show the antineoplastic effect of compounds A, B, C at equimolar doses (33 μmol/kg/day); is control; Δ is compound C (8.0 mg/kg), .smallcircle. is compound B (7.5 mg/kg), and .quadrature. is compound A (8.9 mg/kg).
as §1
The in vivo activity of 4-acetamino-N-(2'-aminophenyl)-benzamide was tested against primary mammary adenocarcinoma induced by 3 single IV administrations of methylnitrosurea on Days 50, 71, and 92 following birth in female SD rats. As soon as tumor volumes ≥0.8 cm^3 were reached, test animals were randomized and therapy was started. […] Median tumor volumes and numbers were determined weekly and compared with untreated controls.

[3] = system: acetoxymethylmethylnitrosamine-induced (AMMN-induced) colon adenocarcinoma; experiment: AMMN-induced colon adenocarcinoma in SD rats; format: in vivo, Male SD-rats; details: for antineoplastic effect (in words): 10-week treatment, 5 days per week
Description: as §1
The activity of the compounds A, B, and C was tested in vivo against AMMN-induced colon adenocarcinoma. Male SD-rats were given 2 mg/kg/week acetoxymethylmethylnitrosamine (AMMN) intrarectally for a period of 10 weeks for tumor induction. Animals with manifest tumors were assigned randomly to the test groups.
^a Application via gastric tube, 5 days per week
The animals were examined twice daily. After the 10-week treatment period, the animals were sacrificed and a total necropsy performed. All tumors were individually measured and their volumes added to a total tumor volume.

[4] = Pharmacokinetic experiments on rats (plasma level, AUC, half-life, bioavailability); format: in vivo
Description: FIG. 1 is the AUC, rat, after administration of 4-acetamino-N-(2'-aminophenyl)benzamide. The * is intragastral administration (2 mg/kg; 10 mg/kg; 50 mg/kg). The * is intravenous administration (10 mg/kg).
In FIG. 2 the average plasma level of 4-amino-N-(2'-aminophenyl)-benzamide in rats after single administration of 10 mg/kg intragastrally (n=4).
The bioavailability of the active material according to the present invention is 100%. […] This is shown graphically in FIG. 1 of the accompanying drawings.

[5] = Acute intragastral toxicity (LD50), 7-day observation; format: in vivo; details: male mice

CC(C)C(=O)Nc1ccc(C(=O)Nc2ccccc2N)cc1 [4-isobutyrylamino-N-(2'-aminophenyl)-benzamide] gave an IC50 [1] of 0.32 µg/mL (≈ 1.08 µM).
Work on CNc1ccc(C(=O)Nc2ccccc2N)cc1 [Compound C, 4-Methylamino-N-(2'-aminophenyl)-benzamide, reference compound] yielded an IC50 (L1210 tumor cells) of 4.04 µg/mL (≈ 16.7 µM).
Compound Nc1ccccc1NC(=O)c1ccc(NC(=O)CCO)cc1 [4-(β-hydroxypropionylamino)-N-(2'-aminophenyl)-benzamide] has an IC50 [1] of 0.77 µg/mL (≈ 2.57 µM).
In the case of CC(=O)Nc1ccc(C(=O)Nc2ccccc2N)cc1 [Compound A, 4-Acetamino-N-(2'-aminophenyl)-benzamide], the “antineoplastic effect at equimolar doses (in words)” value ([2]; 33 μmol/kg/day, A 8.9, B 7.5, C 8.0 mg/kg) is reported as “shows the highest antineoplastic effect”, the “tumor growth, dose dependence and inhibition (in words)” value ([2]; FIG. 4, 7.5, 10, 12.5 mg/kg intragastrally, 5 times/week for 5 weeks) is reported as “affects tumor growth in a dose-dependent manner with almost complete tumor growth inhibition in the highest dose group” and the IC50 [1] is reported as 0.73 µg/mL (≈ 2.71 µM). For the same compound, the “tumor growth (in words)” value ([3]; 7.0 mg/kg/day) was “completely inhibited further growth of colon carcinoma”, the T/C ([3]; 7.0 mg/kg/day, gastric tube, 10 weeks) was 11.1% and the “tumor growth inhibition (in words)” value ([3]; 11.9 mg/kg) was “the growth inhibition is much less”. The T/C ([3]; 11.9 mg/kg, gastric tube, 10 weeks) was “about 5%”, the “antineoplastic effect (in words)” value ([3]; gastric tube) was “very efficient” and the half-life ([4]; rat, in vivo) was 252 to 270 min. For the same compound, the “half-life time versus standard (in words)” value ([4]; rat, in vivo) was “longer half-life time”, the bioavailability ([4]; rat, in vivo, po, 10 mg/kg) was 100% and the “intestinal resorption (in words)” value ([4]; rats) was “quickly, completely, and dosage-linearly”. The “acute toxicity versus comparison standard (in words)” value ([5]; acute intragastral administration) was “considerably less toxic”, the LD50 at 168 h ([5]; mouse, in vivo, po, acute intragastral, n=4, 7-day observation) was 1600 mg/kg and the IC50 (L1210 tumor cells) was 3.75 µg/mL (≈ 13.9 µM). The “cytostatic activity (in words)” value (L1210 tumor cells; Table 1: L1210 and mammary adenocarcinoma 16C, versus comparison standard) was “acts outstandingly cytostatically; also recorded: about the same or better as that of the comparison standard”.
Nc1ccccc1NC(=O)c1ccc(NC(=O)CO)cc1 [4-Glycoloylamino-N-(2'-aminophenyl)-benzamide] showed an IC50 [1] of 0.62 µg/mL (≈ 2.17 µM).
With Nc1ccccc1NC(=O)c1ccc(NC=O)cc1 [4-Formylamino-N-(2'-aminophenyl)-benzamide] the IC50 [1] was 0.4 µg/mL (≈ 1.57 µM).
In the case of Nc1ccc(C(=O)Nc2ccccc2N)cc1 [Compound B, 4-Amino-N-(2'-aminophenyl)-benzamide, reference compound], the IC50 [1] is reported as 0.69 µg/mL (≈ 3.04 µM), the “tumor growth (in words)” value ([3]; 5.9 mg/kg/day) is reported as “arrest of tumor growth” and the “relative median tumor volume T/C” value ([3]; 5.9 mg/kg/day=26 μmol/kg/day, gastric tube, 10 weeks) is reported as 10.6%. For the same compound, the “antineoplastic effect (in words)” value ([3]; gastric tube) was “very efficient”, the half-life ([4]; rat, in vivo, po, 10 mg/kg) was about 15 min and the IC50 (L1210 tumor cells) was 2.78 µg/mL (≈ 12.2 µM).
